Measured values: publication PMC9500858 (International Journal of Molecular Sciences, 2022)

Key:
[1] = Acid hydrolysis (1 M HCl) forced degradation, LC-MS; format: physicochemical; conditions: for Recovery / Concentration Found (Mean ± SD): acidic degradation, 50 μg/mL in 1 M HCl, n = 3; for Concentration Found (Mean ± SD): neutralised with 1 M NaOH
Description: (§1) The separation was carried out using Kinetex XB-C18 column (150 mm × 2.1 mm × 1.7 μm; Phenomenex, Torrance, CA, USA). The mobile phase consisted of A: 0.1% formic acid in deionized water and B: 0.1% formic acid in acetonitrile (MeCN). The two-step gradient was used from 5% B to 50% B in 13 min and from 50% B to 65% B up to 20 min. The column temperature was maintained at 25 °C with a flow rate equal to 0.3 mL/min. The eluate was introduced directly to the mass spectrometer. The ion trap setting was as follows: capillary voltage 4500 V, endplate offset 500 V, nebulizer pressure 40 psi, drying gas temperature 145 °C and gas flow rate 9 L/min. The instrument used a smart parameter setting (SPS) fixed at 1000 amu. The scan range was from m/z = 70 to m/z = 2200. Compounds were analyzed in […] ion mode.
(§2) Before LC analysis, the ionization of each quantified compound in the positive ion mode was optimized by the direct injection of standard (50 µg/mL in 0.1% HCOOH in H2O; 0.3 mL/min) into the ESI source of the mass spectrometer. The intensity of the most abundant ion for each compound was monitored in order to choose optimal conditions. The quantification of investigated compounds was performed using the dominating ion (for both PK20 and [Ile^9] PK20 the ion at m/z =1357.40 ± 0.3, retention time ca. 11.2 min).
(§3) The calibration curves were plotted as the amount of injected compound (ng) vs. detector response (peak area) using extracted ion chromatograms (EIC) for the characteristic ion for each compound. The linear range for each quantified compound was between 5 and 200 ng per injection. Five amount levels were used for the plotting of curves. Samples at each level were analyzed in triplicate.
(§4) The stability of PK20 and [Ile^9]PK20 was tested under acidic, basic, oxidative, heat, freeze and ultraviolet light conditions. All experiments were conducted in triplicate (n = 3). The comparison of peak areas in degradative and non-degradative conditions for both compounds can be observed in Figure 3 and Figure 4.
(§5) Drug solution (50 μg/mL) was prepared in HCl (1 M) or NaOH (1 M). Aliquots were kept at a temperature of 80 °C (LBK type water bath, SWL Bytom, Poland) for 12 h and 37°C (medical water bath, LW102, Auritronic, Krakow, Poland) for 24 h. At a specific time-point, acidic and basic solutions of both PK20 and [Ile^9]PK20 were neutralized with an equal volume of 1 M NaOH or 1 M HCl, respectively, and diluted with an equal volume of 0.2% formic acid in acetonitrile and analyzed using LC-MS.

[2] = Base hydrolysis (1 M NaOH) forced degradation, LC-MS; format: physicochemical; conditions: for Recovery / Concentration Found (Mean ± SD): basic degradation, 50 μg/mL in 1 M NaOH, n = 3; for Concentration Found (Mean ± SD): neutralised with 1 M HCl
Description: as §1, §2, §3, §4, §5

[3] = Oxidative degradation (30% H2O2), LC-MS; format: physicochemical; conditions: n = 3
Description: as §1, §2, §3, §4
PK20 and [Ile^9]PK20 solution (50 μg/mL) was prepared in 30% (v/v) hydrogen peroxide (H2O2). Aliquots were incubated at 37 °C for 24 h and 80 °C for 12 h. After the incubation, each drug solution was diluted with an equal volume of 0.2% formic acid in acetonitrile and analyzed with LC-MS.

[4] = Thermal degradation and freeze-thaw in Mili-Q water, LC-MS; format: physicochemical; conditions: 50 μg/mL in Mili-Q water, n = 3
Description: as §1, §2, §3, §4
Solutions (50 μg/mL) of both hybrid peptides were prepared in Mili-Q water, and aliquots were kept at room temperature 22 °C, 37 °C and −80 °C for 24 h and at 80 °C for 12 h. One aliquot was also subjected to two freeze–thaw cycles with the sample first frozen at −80°C for 24 h, defrosted under running tap water at room temperature for 2 h and second frozen at −20°C for 24 h and defrosted under running tap water at room temperature for 2 h. Then, the solutions of PK20 and [Ile^9]PK20 were diluted with an equal volume of 0.2% formic acid in acetonitrile and analyzed with LC-MS.

[5] = Photolytic (UV) degradation in Mili-Q water, LC-MS; format: physicochemical; conditions: 365 nm UV light, 7 h, 50 μg/mL in Mili-Q water, clear plastic vials, n = 3
Description: as §1, §2, §3, §4
PK20 and [Ile^9]PK20 solution (50 μg/mL) was prepared in Mili-Q water, and aliquots were kept in clear plastic vials exposed to UV light (366 nm, Camag, UV Lamp 4, Camag, Switzerland) for 7 h. After the incubation, the drug solution was diluted with an equal volume of 0.2% formic acid in acetonitrile and analyzed with LC-MS.

mu opioid receptor [6] = conditions: intrinsic activity of the receptor; read-out: EC50 (potency) at mu opioid receptor; cited from earlier work
Source text: Since hybrid compounds have gained attention due to their potent multifunctional behavior with a more favorable profile in terms of possible side effects, much work devoted to such compounds can be found. PK20 and [Ile^9]PK20, which are hybrid structures encompassing both opioid and neurotensin pharmacophores, although modified, were designed and synthesized to reduce pain.

[7] = tested on: NTS1 neurotensin receptor; conditions: replacement of Tle with Ile; cited from earlier work
Source text: (§6) Tle and Ile are structural isomers belonging to the same class of leucines with the same atomic composition (C6H13NO2) but they have different chemical structures, including different bond coordination and stereochemistry (Figure 1). Thus, their presence in the peptide structure led to diverse results. In fact, incorporation of Ile into the 9th position of the peptide chain caused a decrease in the analgesic activity in vivo when compared with PK20, having a tert-leucine (Tle9) in the corresponding position. Nonetheless, [Ile^9]PK20 produced the maximal pain-relieving effect, although wi ...

mu opioid receptor [8] = conditions: replacement of Tle with Ile; cited from earlier work
Source text: as §6

[9] = 50 μg/mL in 30% (v/v) H2O2, 37 °C, 24 h
[10] = 50 μg/mL in 30% (v/v) H2O2, 80 °C, 12 h
[11] = thermal degradation, 37 °C, 24 h
[12] = thermal degradation, 80 °C, 12 h
[13] = thermal degradation, room temperature (22 °C), 24 h
[14] = thermal degradation, −80 °C, 24 h

With “HELM PEPTIDE1{[Cc1cc(O)cc(C)c1C[C@H](N)C(=O)[*:2]].[dK].F.F.K.K.P.F.I.L}$$$$V2.0 (N-terminus assumed; SMILES CC[C@H](C)[C@H](NC(=O)[C@H](Cc1ccccc1)NC(=O)[C@@H]1CCCN1C(=O)[C@H](CCCCN)NC(=O)[C@H](CCCCN)NC(=O)[C@H](Cc1ccccc1)NC(=O)[C@H](Cc1ccccc1)NC(=O)[C@@H](CCCCN)NC(=O)[C@@H](N)Cc1c(C)cc(O)cc1C)C(=O)N[C@@H](CC(C)C)C(=O)O) [[Ile^9]PK20, analogue of PK20 with Ile instead of Tle at position 9]” the Recovery ([1]; 37 °C, 24 h, LC-MS) was 88.79%, the “Concentration Found (Mean ± SD)” value ([1]; 37 °C, 24 h, LC-MS (EIC m/z 1357.40)) was 44390 ± 4480 ng/mL and the Recovery ([1]; 80 °C, 12 h, LC-MS) was 52.25%. The “Concentration Found (Mean ± SD)” value ([1]; 80 °C, 12 h, LC-MS) was 26120 ± 1520 ng/mL, the “half-life in 1M HCl” value ([1]; calculated half-life, acidic conditions, 1 M HCl, 50 μg/mL, temperature not given for the half-life, LC-MS) was 117.7 h and the Recovery ([2]; 37 °C, 24 h) was 37.13%. The “Concentration Found (Mean ± SD)” value ([2]; 37 °C, 24 h) was 18560 ± 590 ng/mL, the Recovery ([2]; 80 °C, 12 h) was 11.23% and the “Concentration Found (Mean ± SD)” value ([2]; 80 °C, 12 h) was 5610 ± 1830 ng/mL. The “half-life (t1/2) in 1M NaOH” value ([2]; calculated half-life, alkaline conditions, 1 M NaOH, 50 μg/mL, temperature not given for the half-life) was 4.69 h, the “Concentration Found (Mean ± SD)” value [3, 9] was 31390 ± 270 ng/mL and the Recovery [3, 9] was 62.79%. The “Concentration Found (Mean ± SD)” value [3, 10] was 8240 ± 6690 ng/mL, the Recovery [3, 10] was 16.48% and the “Concentration Found (Mean ± SD)” value [4, 11] was 44160 ± 990 ng/mL. The Recovery [4, 11] was 88.32%, the “Concentration Found (Mean ± SD)” value [4, 12] was 43270 ± 1180 ng/mL and the Recovery [4, 12] was 86.54%. The “Concentration Found (Mean ± SD)” value [4, 13] was 49710 ± 2240 ng/mL, the Recovery [4, 13] was 99.41% and the “Concentration Found (Mean ± SD)” value [4, 14] was 51870 ± 400 ng/mL. For the same substance, the Recovery [4, 14] was 103.74%, the “Concentration Found (Mean ± SD)” value ([4]; two freeze–thaw cycles (24 h −80 °C, 2 h 22 °C, 24 h −20 °C)) was 49040 ± 1030 ng/mL and the “Concentration Found (Mean ± SD)” value ([5]; mean ± SD) was 9630 ± 110 ng/mL. The Recovery [5] was 19.25%, the EC50 (mu opioid receptor [6]) was 1240 nM and the “binding at NTS1 neurotensin receptor relative to PK20” value [7] was “reduced binding”. For the same substance, the “binding at mu opioid receptor relative to PK20” value (mu opioid receptor [8]) was “reduced binding”.
